From PMC4971072, “Chemically Homogenous Compounds with Antagonistic Properties at All α1-Adrenoceptor Subtypes but not β1-Adrenoceptor Attenuate Adrenaline-Induced Arrhythmia in Rats” (Frontiers in Pharmacology, 2016)
Where two headings read alike, the source gives them in different places. Marks after values point to notes of the source that are not given here.

Tests used:
[1] = test system: adrenaline-induced arrhythmia in rats; experiment: Prophylactic antiarrhythmic activity in adrenaline-induced arrhythmia; assay type: in vivo, rat
Protocol: The studied compounds were administered i.p. 45 min before the injection of adrenaline, calcium chloride, or barium chloride. The electrocardiogram (ECG) was recorded during the first 2 min as well as in the 5th, 10th, and 15th min after the arrhythmogen injection. […]

[2] = test system: lipid peroxidation in rat brain homogenate; experiment: Lipid peroxidation in rat brain homogenate (TBARS), antioxidant effect; assay type: biochemical; conditions: 10^−3 M
Protocol: The rat brain homogenate containing 10 mg tissue/ml was prepared in 0.9% saline. The rates of membrane lipid peroxidation were measured by the formation of thiobarbituric acid reactive substances (TBARS). Rat brain homogenates (1 ml) were incubated at 37°C for 5 min with 10 μl of a tested compound or vehicle. Lipid peroxidation was initiated by the addition of 50 μl of 0.5 mM FeCl2 and 50 μl of 2.0 mM ascorbic acid. After 30 min of incubation, the reaction was stopped by adding 0.1 ml of 0.2% butylated hydroxytoluene (BHT). Thiobarbituric acid reagent was then added and the mixture was heated for 15 min in a boiling water bath.

α1A−adrenoceptor subtype = test system: α1A−adrenoceptor subtype; parameters: method as in Koshimizu et al. (2004); conditions: ref Koshimizu et al. (2004); cited from earlier work
α1B−adrenoceptor = test system: α1B−adrenoceptor; parameters: method as in Koshimizu et al. (2004); conditions: ref Koshimizu et al. (2004); cited from earlier work
α1-adrenoceptor [3] = conditions: ref Pönicke et al. (2002); read-out: Adrenergic receptors Ki α1; cited from earlier work
α1-adrenoceptor [4] = experiment: α1-adrenoceptor radioligand binding assay ([3H]-prazosin, rat cerebral cortex); conditions: read-out: Adrenergic receptors Ki α1
Protocol: The α1- and β1-adrenoceptor radioligand binding assay was performed on rat cerebral cortex. […] The cell pellet was resuspended in the Tris–HCl buffer and centrifuged again. Radioligand binding assays were performed in plates (MultiScreen/Millipore). […] The incubation was terminated by rapid filtration through glass fiber filters (Whatman GF/C) using a vacuum manifold (Millipore). The filters were then washed twice with the assay buffer and placed in scintillation vials with a liquid scintillation cocktail. […] All the assays were made in duplicate and the inhibitory constants (Ki) were estimated.
LO–labeled ligand concentration, KD–dissociation constant of labeled ligand

α1D-adrenoreceptors = molecular target: T1, α1D-adrenoreceptors (Rattus norvegicus, UniProt P23944); conditions: rat aorta; ref Eltze (1996); cited from earlier work
T1 sequence (P23944 1-561): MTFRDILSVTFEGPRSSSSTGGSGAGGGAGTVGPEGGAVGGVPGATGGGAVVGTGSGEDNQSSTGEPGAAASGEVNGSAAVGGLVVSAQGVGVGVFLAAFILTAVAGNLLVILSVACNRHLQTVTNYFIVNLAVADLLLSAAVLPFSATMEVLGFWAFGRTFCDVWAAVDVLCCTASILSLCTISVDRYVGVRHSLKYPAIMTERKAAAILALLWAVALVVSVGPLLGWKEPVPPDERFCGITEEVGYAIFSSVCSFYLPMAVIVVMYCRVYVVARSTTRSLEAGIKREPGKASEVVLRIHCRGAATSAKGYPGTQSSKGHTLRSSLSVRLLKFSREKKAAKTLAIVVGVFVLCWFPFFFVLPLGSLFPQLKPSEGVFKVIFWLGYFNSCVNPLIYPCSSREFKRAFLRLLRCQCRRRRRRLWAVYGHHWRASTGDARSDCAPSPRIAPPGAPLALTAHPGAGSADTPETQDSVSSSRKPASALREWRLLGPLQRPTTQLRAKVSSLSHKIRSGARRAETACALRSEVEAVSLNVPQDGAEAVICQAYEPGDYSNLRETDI

α1A-adrenoceptors = molecular target: T2, α1A-adrenoceptors (Rattus norvegicus, UniProt P43140); conditions: rat tail artery, cited from earlier work
T2 construct: the middle part of the ventral caudal artery was removed; from tissue; host or cells: isolated rat tail (ventral caudal) artery rings
T2 sequence (P43140 1-466): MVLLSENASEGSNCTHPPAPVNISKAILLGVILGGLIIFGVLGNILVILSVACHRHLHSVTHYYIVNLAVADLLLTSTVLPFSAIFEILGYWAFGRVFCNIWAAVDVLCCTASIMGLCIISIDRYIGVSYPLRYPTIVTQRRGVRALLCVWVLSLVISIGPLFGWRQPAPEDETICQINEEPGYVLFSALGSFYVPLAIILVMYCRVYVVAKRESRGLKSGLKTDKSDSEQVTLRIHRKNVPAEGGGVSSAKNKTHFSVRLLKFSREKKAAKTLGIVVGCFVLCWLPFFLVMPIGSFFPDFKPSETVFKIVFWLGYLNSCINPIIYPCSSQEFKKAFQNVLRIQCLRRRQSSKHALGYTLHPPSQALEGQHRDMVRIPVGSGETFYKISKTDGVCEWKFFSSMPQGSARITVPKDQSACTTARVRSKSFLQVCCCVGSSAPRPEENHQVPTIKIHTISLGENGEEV

α1B-adrenoceptors = molecular target: T3, α1B-adrenoceptors (Mus musculus, UniProt P97717); conditions: mouse spleen, cited from earlier work
T3 construct: The spleen was removed from male mice; from tissue; host or cells: isolated mouse spleen
T3 sequence (P97717 1-514): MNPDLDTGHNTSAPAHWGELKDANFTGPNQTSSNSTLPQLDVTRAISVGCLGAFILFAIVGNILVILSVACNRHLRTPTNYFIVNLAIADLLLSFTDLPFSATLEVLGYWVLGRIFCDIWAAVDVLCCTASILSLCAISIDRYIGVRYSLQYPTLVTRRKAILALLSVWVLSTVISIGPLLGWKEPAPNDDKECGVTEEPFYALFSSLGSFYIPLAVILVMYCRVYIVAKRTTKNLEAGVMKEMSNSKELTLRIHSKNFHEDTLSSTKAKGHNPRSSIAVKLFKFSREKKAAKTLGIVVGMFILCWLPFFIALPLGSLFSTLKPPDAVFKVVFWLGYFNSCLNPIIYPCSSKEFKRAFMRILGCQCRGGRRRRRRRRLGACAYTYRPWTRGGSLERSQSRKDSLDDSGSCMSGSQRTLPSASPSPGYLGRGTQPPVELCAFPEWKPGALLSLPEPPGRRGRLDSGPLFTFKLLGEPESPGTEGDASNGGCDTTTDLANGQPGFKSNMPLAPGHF

[5] = adrenaline 20 μg/kg i.v. alone (arrhythmia control)

CNC[C@H](O)c1ccc(O)c(O)c1 [Adrenaline, adrenaline]
Bigeminy (%) [1, 5]: 33.3%
Blocks (%) [1, 5]: 50.0%
Bradycardia (%) [1, 5]: 66.7%

COc1ccccc1OCCNCC(O)COc1cccc2[nH]c3ccccc3c12 (stereo not shown) [Carvedilol, carvedilol, reference compound]
inhibition of lipid peroxidation (in words) [2]: inhibited lipid peroxidation
% reduction of absorbance (% antioxidant activity) ([2]; TBARs at 532 nm): 89.58%
Absorbance ([2]; TBARs at 532 nm): 0.094 ± 0.002
pA2 value for α1A−adrenoceptor subtype (α1A−adrenoceptor subtype): 9.0
ED50 ([1]; Rattus norvegicus, read-out: ED50 (confidence limits)): 0.36 mg/kg
pA2 value for α1B−adrenoceptor (α1B−adrenoceptor): 10.0

Cc1ccc(N(CC2=NCCN2)c2cccc(O)c2)cc1 [Phentolamine, phentolamine, reference compound]
Ki (α1-adrenoceptor [4]): 18.3 nM

COc1cc2nc(N3CCN(C(=O)c4ccco4)CC3)nc(N)c2cc1OC [Prazosin, prazosin]
pA2 ± S.E.M., α1D (α1D-adrenoreceptors): 8.85 ± 0.09^b
pA2 ± S.E.M., α1A (α1A-adrenoceptors; ref Parés-Hipólito et al. (2006)): 8.93 ± 0.03^a
pA2 ± S.E.M., α1B (α1B-adrenoceptors; ref Eltze (1996)): 9.07 ± 0.09^b

CCOc1ccccc1OCCN[C@H](C)Cc1ccc(OC)c(S(N)(=O)=O)c1 [Tamsulosin]
pA2 ± S.E.M., α1A (α1A-adrenoceptors; ref Jähnichen et al. (2004)): 10.32 ± 0.05^c
pA2 ± S.E.M., α1B (α1B-adrenoceptors; ref Eltze et al. (1999)): 8.33 ± 0.08^d
